Reference: patent publication US9371280B2, “Substituted pyrrolidine-2-carboxamides” (Hoffmann-La Roche Inc., priority 2012, dated 2016)
Counter-ions that a name gives are not always drawn.

Biological target: interaction between p53 and MDM2 proteins (recombinant GST-tagged MDM2) (Homo sapiens, UniProt Q00987)
Experiment: HTRF assay of inhibition of the p53-MDM2 interaction (GST-MDM2 / biotinylated p53 peptide);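 further: FRET read-out from Eu-labelled anti-GST antibody to streptavidin-APC, with 90 nM N-terminally biotinylated p53 peptide and 160 ng/ml GST-MDM2 in Tris-borate saline containing 1 mM DTT, 384-well format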
Assay type: binding
Conditions: HTRF, 0.02% BSA, 37° C. 1 h
Protocol: The ability of the compounds to inhibit the interaction between p53 and MDM2 proteins was measured by an HTRF (homogeneous time-resolved fluorescence) assay in which recombinant GST-tagged MDM2 binds to a peptide that resembles the MDM2-interacting region of p53 (Lane et al.). Binding of GST-MDM2 protein and p53-peptide (biotinylated on its N-terminal end) is registered by the FRET (fluorescence resonance energy transfer) between Europium (Eu)-labeled anti-GST antibody and streptavidin-conjugated Allophycocyanin (APC).
Test is performed in black flat-bottom 384-well plates (Costar) in a total volume of 40 uL containing: 90 nM biotinylate peptide, 160 ng/ml GST-MDM2, 20 nM streptavidin-APC (PerkinElmerWallac), 2 nM Eu-labeled anti-GST-antibody (PerkinElmerWallac), 0.02% bovine serum albumin (BSA), 1 mM dithiothreitol (DTT) and 20 mM Tris-borate saline (TBS) buffer as follows: Add 10 uL of GST-MDM2 (640 ng/ml working solution) in reaction buffer to each well. […] Incubate at 37° C. for 1 h.

Chain of interaction between p53 and MDM2 proteins (recombinant GST-tagged MDM2) (Q00987 whole entry): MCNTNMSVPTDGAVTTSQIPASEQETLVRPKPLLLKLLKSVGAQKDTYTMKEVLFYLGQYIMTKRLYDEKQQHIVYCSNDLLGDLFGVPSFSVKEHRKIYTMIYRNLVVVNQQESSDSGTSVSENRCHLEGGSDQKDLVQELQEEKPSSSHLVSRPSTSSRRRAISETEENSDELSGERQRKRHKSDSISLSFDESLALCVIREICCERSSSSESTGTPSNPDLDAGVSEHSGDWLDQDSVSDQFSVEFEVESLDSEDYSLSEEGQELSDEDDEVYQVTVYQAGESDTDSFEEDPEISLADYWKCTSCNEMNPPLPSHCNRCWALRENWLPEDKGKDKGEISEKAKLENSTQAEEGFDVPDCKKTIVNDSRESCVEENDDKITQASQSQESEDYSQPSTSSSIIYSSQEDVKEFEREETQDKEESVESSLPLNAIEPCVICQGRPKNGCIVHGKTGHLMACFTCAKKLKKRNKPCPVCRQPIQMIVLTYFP

Row | IC50 | Compound
1 | 11.6 nM | COc1cc(C(=O)OCC(=O)N2CCN(C)CC2)ccc1NC(=O)[C@@H]1N[C@@H](CC(C)(C)C)[C@](C#N)(c2ccc(Cl)cc2F)[C@H]1c1cccc(Cl)c1F [Example 64, 4-{[(2R,3S,4R,5S)-4-(4-Chloro-2-fluoro-phenyl)-3-(3-chloro-2-fluoro-phenyl)-4-cyano-5-(2,2-dimethyl-propyl)-pyrrolidine-2-carbonyl]-amino}-3-methoxy-benzoic acid 2-(4-methyl-piperazin-1-yl)-2-oxo-ethyl ester, hydrochloride]
2 | 12.9 nM | COc1cc(C(=O)OCC(N)=O)ccc1NC(=O)[C@@H]1N[C@@H](CC(C)(C)C)[C@](C#N)(c2ccc(Cl)cc2F)[C@H]1c1cccc(Cl)c1F [Example 65, 4-{[(2R,3S,4R,5S)-4-(4-Chloro-2-fluoro-phenyl)-3-(3-chloro-2-fluoro-phenyl)-4-cyano-5-(2,2-dimethyl-propyl)-pyrrolidine-2-carbonyl]-amino}-3-methoxy-benzoic acid carbamoylmethyl ester]
3 | 9.04 nM | COc1cc(C(=O)OCC(=O)N2CCOCC2)ccc1NC(=O)[C@@H]1N[C@@H](CC(C)(C)C)[C@](C#N)(c2ccc(Cl)cc2F)[C@H]1c1cccc(Cl)c1F [Example 66, 4-{[(2R,3S,4R,5S)-4-(4-Chloro-2-fluoro-phenyl)-3-(3-chloro-2-fluoro-phenyl)-4-cyano-5-(2,2-dimethyl-propyl)-pyrrolidine-2-carbonyl]-amino}-3-methoxy-benzoic acid 2-morpholin-4-yl-2-oxo-ethyl ester]
4 | 11.8 nM | COc1cc(C(=O)OCC(=O)NCC2COC(C)(C)O2)ccc1NC(=O)[C@@H]1N[C@@H](CC(C)(C)C)[C@](C#N)(c2ccc(Cl)cc2F)[C@H]1c1cccc(Cl)c1F (stereo partly drawn) [Example 67, 4-{[(2R,3S,4R,5S)-4-(4-Chloro-2-fluoro-phenyl)-3-(3-chloro-2-fluoro-phenyl)-4-cyano-5-(2,2-dimethyl-propyl)-pyrrolidine-2-carbonyl]-amino}-3-methoxy-benzoic acid [(2,2-dimethyl-[1,3]dioxolan-4-ylmethyl)-carbamoyl]-methyl ester]
5 | 12 nM | COc1cc(C(=O)OCC(=O)NCC(O)CO)ccc1NC(=O)[C@@H]1N[C@@H](CC(C)(C)C)[C@](C#N)(c2ccc(Cl)cc2F)[C@H]1c1cccc(Cl)c1F (stereo partly drawn) [Example 68, 4-{[(2R,3S,4R,5S)-4-(4-Chloro-2-fluoro-phenyl)-3-(3-chloro-2-fluoro-phenyl)-4-cyano-5-(2,2-dimethyl-propyl)-pyrrolidine-2-carbonyl]-amino}-3-methoxy-benzoic acid (2,3-dihydroxy-propylcarbamoyl)-methyl ester]
6 | 56.4 nM | COc1cc(C(=O)OCC(=O)N[C@@H](CCC(=O)OCc2ccccc2)C(=O)OCc2ccccc2)ccc1NC(=O)[C@@H]1N[C@@H](CC(C)(C)C)[C@](C#N)(c2ccc(Cl)cc2F)[C@H]1c1cccc(Cl)c1F [Example 70, (S)-2-[2-(4-{[(2R,3S,4R,5S)-4-(4-Chloro-2-fluoro-phenyl)-3-(3-chloro-2-fluoro-phenyl)-4-cyano-5-(2,2-dimethyl-propyl)-pyrrolidine-2-carbonyl]-amino}-3-methoxy-benzoyloxy)-acetylamino]-pentanedioic acid dibenzyl ester]
7 | 5.94 nM | COc1cc(C(=O)OCC(=O)N[C@@H](CCC(=O)O)C(=O)O)ccc1NC(=O)[C@@H]1N[C@@H](CC(C)(C)C)[C@](C#N)(c2ccc(Cl)cc2F)[C@H]1c1cccc(Cl)c1F [Example 71, (S)-2-[2-(4-{[(2R,3S,4R,5S)-4-(4-Chloro-2-fluoro-phenyl)-3-(3-chloro-2-fluoro-phenyl)-4-cyano-5-(2,2-dimethyl-propyl)-pyrrolidine-2-carbonyl]-amino}-3-methoxy-benzoyloxy)-acetylamino]-pentanedioic acid]
8 | 20.3 nM | COCCOCCOCCOC(=O)COC(=O)c1ccc(NC(=O)[C@@H]2N[C@@H](CC(C)(C)C)[C@](C#N)(c3ccc(Cl)cc3F)[C@H]2c2cccc(Cl)c2F)c(OC)c1 [Example 72, 4-{[(2R,3S,4R,5S)-4-(4-Chloro-2-fluoro-phenyl)-3-(3-chloro-2-fluoro-phenyl)-4-cyano-5-(2,2-dimethyl-propyl)-pyrrolidine-2-carbonyl]-amino}-3-methoxy-benzoic acid 2-[2-(2-methoxy-ethoxy)-ethoxy]-ethoxycarbonylmethyl ester]
9 | 19.6 nM | COCCOCCOCCOCCOC(=O)COC(=O)c1ccc(NC(=O)[C@@H]2N[C@@H](CC(C)(C)C)[C@](C#N)(c3ccc(Cl)cc3F)[C@H]2c2cccc(Cl)c2F)c(OC)c1 [Example 73, 4-{[(2R,3S,4R,5S)-4-(4-Chloro-2-fluoro-phenyl)-3-(3-chloro-2-fluoro-phenyl)-4-cyano-5-(2,2-dimethyl-propyl)-pyrrolidine-2-carbonyl]-amino}-3-methoxy-benzoic acid 2-{2-[2-(2-methoxy-ethoxy)-ethoxy]-ethoxy}-ethoxycarbonylmethyl ester]
10 | 9.2 nM | COc1cc(C(=O)OCC(=O)NCCOCCOCCOCCO)ccc1NC(=O)[C@@H]1N[C@@H](CC(C)(C)C)[C@](C#N)(c2ccc(Cl)cc2F)[C@H]1c1cccc(Cl)c1F [Example 75, 4-{[(2R,3S,4R,5S)-4-(4-Chloro-2-fluoro-phenyl)-3-(3-chloro-2-fluoro-phenyl)-4-cyano-5-(2,2-dimethyl-propyl)-pyrrolidine-2-carbonyl]-amino}-3-methoxy-benzoic acid (2-{2-[2-(2-hydroxy-ethoxy)-ethoxy]-ethoxy}-ethylcarbamoyl)-methyl ester]
11 | 6.31 nM | COc1cc(C(=O)NCCOCCOCCOCCN)ccc1NC(=O)[C@@H]1N[C@@H](CC(C)(C)C)[C@](C#N)(c2ccc(Cl)cc2F)[C@H]1c1cccc(Cl)c1F [Example 77, (2R,3S,4R,5S)-4-(4-Chloro-2-fluoro-phenyl)-3-(3-chloro-2-fluoro-phenyl)-4-cyano-5-(2,2-dimethyl-propyl)-pyrrolidine-2-carboxylic acid [4-(2-{2-[2-(2-amino-ethoxy)-ethoxy]-ethoxy}-ethylcarbamoyl)-2-methoxy-phenyl]-amide]

Row | Compound | IC50
12 | COc1cc(C(=O)NCCOCCOCCOCCNC(=O)c2ccc(NC(=O)[C@@H]3N[C@@H](CC(C)(C)C)[C@](C#N)(c4ccc(Cl)cc4F)[C@H]3c3cccc(Cl)c3F)c(OC)c2)ccc1NC(=O)[C@@H]1N[C@@H](CC(C)(C)C)[C@](C#N)(c2ccc(Cl)cc2F)[C@H]1c1cccc(Cl)c1F [Example 76, (2R,3S,4R,5S)-4-(4-Chloro-2-fluoro-phenyl)-3-(3-chloro-2-fluoro-phenyl)-4-cyano-5-(2,2-dimethyl-propyl)-pyrrolidine-2-carboxylic acid [4-(2-{2-[2-(2-amino-ethoxy)-ethoxy]-ethoxy}-ethylcarbamoyl)-2-methoxy-phenyl]-amide, dimer] | 64.3 nM
13 | C=CCOC(=O)[C@H](CCCCNC(=O)OC(C)(C)C)NC(=O)COC(=O)c1ccc(NC(=O)[C@@H]2N[C@@H](CC(C)(C)C)[C@](C#N)(c3ccc(Cl)cc3F)[C@H]2c2cccc(Cl)c2F)c(OC)c1 [Example 78, 4-{[(2R,3S,4R,5S)-4-(4-Chloro-2-fluoro-phenyl)-3-(3-chloro-2-fluoro-phenyl)-4-cyano-5-(2,2-dimethyl-propyl)-pyrrolidine-2-carbonyl]-amino}-3-methoxy-benzoic acid ((S)-1-allyloxycarbonyl-5-tert-butoxycarbonylamino-pentylcarbamoyl)-methyl ester] | 16.6 nM
